# Like-named read-outs stand apart in the source and are kept apart here.
# Key:
# Assay type in all cases: cell-based
# Conditions in all cases: 48 h
# [1] = system: Staphylococcus aureus ATCC6538; test: Broth microdilution inhibitory rate (MIC assay) against Staphylococcus aureus
# Procedure: (§1) Staphyloccocus aureus strain ATCC 6538, Bacillus subtilis ATCC9372 or Candida albicans ATCC10231 each (0.1 ml of a bacterial suspension having 10^8 cfu/ml bacteria) were inoculated into the mixture. […] Test tubes containing the mixtures were placed in a 37° C. incubator and incubated for 48 hours. The concentration of bacterial cells in each test tube was measured. The inhibitory rates were calculated as below:
# (§2) [(Positive control average colony count−Test average colony count)/Positive control average colony count]×100%
# (§3) Positive controls are the tubes having broth and microorganisms but no antimicrobial agents.
# [2] = system: Bacillus subtilis ATCC9372
# Procedure: as §1, §2, §3
# [3] = system: Candida albicans ATCC10231; test: Broth microdilution inhibitory rate (MIC assay) against Candida albicans
# Procedure: as §1, §2, §3
# [4] = dilution 1* of initial concentration (CHG 5 g/L, CPC 0.5 g/L), 37° C.
# [5] = dilution 1/10 of initial concentration (CHG 5 g/L, CPC 0.5 g/L)
# [6] = dilution 1/100 of initial concentration (CHG 5 g/L, CPC 0.5 g/L)
# [7] = dilution 1/1000 of initial concentration (CHG 5 g/L, CPC 0.5 g/L)
# [8] = dilution 1/2000 of initial concentration (CHG 5 g/L, CPC 0.5 g/L)
# [9] = dilution 1/4000 of initial concentration (CHG 5 g/L, CPC 0.5 g/L)
# [10] = dilution 1/8000 of initial concentration (CHG 5 g/L, CPC 0.5 g/L)
smiles,measurement,setting,value
"N=C(NCCCCCCNC(=N)NC(=N)Nc1ccc(Cl)cc1)NC(=N)Nc1ccc(Cl)cc1.O=C(O)[C@H](O)[C@@H](O)[C@H](O)[C@H](O)CO.O=C(O)[C@H](O)[C@@H](O)[C@H](O)[C@H](O)CO [CHG, chlorhexidine digluconate]",Anti-microbial activity (inhibitory rate),[1]; [4],100%
same,Anti-microbial activity (inhibitory rate),[1]; [5],100%
same,Anti-microbial activity (inhibitory rate),[1]; [6],100%
same,Anti-microbial activity (inhibitory rate),[1]; [7],100%
same,Anti-microbial activity (inhibitory rate),[1]; [8],100%
same,Anti-microbial activity (inhibitory rate),[1]; [9],100%
same,Anti-microbial activity (inhibitory rate),[1]; [10],78.43%
same,Anti-microbial activity (inhibitory rate),[2]; [4],100%
same,Anti-microbial activity (inhibitory rate),[2]; [5],100%
same,Anti-microbial activity (inhibitory rate),[2]; [6],100%
same,Anti-microbial activity (inhibitory rate),[2]; [7],100%
same,Anti-microbial activity (inhibitory rate),[2]; [8],100%
same,Anti-microbial activity (inhibitory rate),[2]; [9],100%
same,Anti-microbial activity (inhibitory rate),[2]; [10],99.99%
same,Anti-microbial activity (inhibitory rate),"[2]; dilution 1/16000 of initial concentration (CHG 5 g/L, CPC 0.5 g/L)",99.50%
same,Anti-microbial activity (inhibitory rate),"[2]; dilution 1/32000 of initial concentration (CHG 5 g/L, CPC 0.5 g/L)",90.83%
same,Anti-microbial activity (inhibitory rate),[3]; [4],100%
same,Anti-microbial activity (inhibitory rate),[3]; [5],100%
same,Anti-microbial activity (inhibitory rate),[3]; [6],100%
same,Anti-microbial activity (inhibitory rate),[3]; [7],97.76%
same,Anti-microbial activity (inhibitory rate),[3]; [8],93.92%
same,Anti-microbial activity (inhibitory rate),[3]; [9],90.41%
